Experimental data published in article PMC9240354, “Pharmacokinetics, Pharmacodynamics and Antiviral Efficacy of the MEK Inhibitor Zapnometinib in Animal Models and in Humans” (Frontiers in Pharmacology, 2022).

Tests used:
[1] = in vivo; conditions: C57BL/6, mouse
[2] = test system: human PBMCs; conditions: read-out: CC50 cytotoxicity, ref Laure et al., 2020; cited from earlier work
[3] = test system: MEK; assay: MEK inhibition in PBMCs, summary regardless of species; type: in vivo, mice, hamsters, dogs, human
Experimental: The pharmacodynamic assessment was performed using the Wes™ (Simple Western™) system which uses capillary electrophoresis to separate, identify and quantify proteins of interest. A chemiluminescence signal for each identified protein is detected and the area under the peak is calculated, which is then used for quantification. The 0.1x Sample Buffer, 400 mM dithiothreitol (DTT) solution, 5x Fluorescence Master Mix, and the Biotinylated Ladder (ProteinSimple®, Abingdon, Oxford, United Kingdom) were prepared according to manufacturer’s instructions. For all species, PBMCs were lysed in 1x radioimmunoprecipitation assay (RIPA) buffer (containing 0.24% (w/v) tris base (Sigma-Aldrich, St. Louis, MO, United States), 0.88% (w/v) NaCl (Carl Roth GmbH, Karlsruhe, Germany), 0.2% (v/v) 500 mM EDTA (Sigma-Aldrich), 1% (v/v) Triton X-100 (Sigma-Aldrich), 0.5% (w/v) sodium deoxycholate (Sigma-Aldrich), 0.1% (w/v) sodium dodecyl sulfate (SDS) (Carl Roth), 10% (v/v) glycerol (Carl Roth), 0.05% phenylmethyl sulfonyl fluoride (PMSF) (Carl Roth), 0.01% Benzonase® Nuclease (Sigma-Aldrich), protease inhibitor cocktail (Roche, Basel, Switzerland), and phosphatase inhibitor cocktail (Roche) in H2O), further diluted with 0.1x Sample Buffer (ProteinSimple®, Abingdon, Oxford, United Kingdom) to adjust the protein concentration to 1 μg/μl. Then the 5x Fluorescence Master Mix in DTT (ProteinSimple®) was added, and the samples were denatured for 5 min at 95°C, loaded onto the assay plate and analyzed using specific antibodies. […] The anti-rabbit secondary antibody (Cat# DM-001) was also purchased from ProteinSimple® and was ready to use. Data were analyzed with Compass software for simple western (ProteinSimple®). Using the ratio of pERK to ERK of each sample compared to control (pre-dose), the level of ERK phosphorylation was calculated and then converted into the percentage level of MEK inhibition.

[4] = test system: SARS-CoV-2; design: method as in Schreiber et al., 2022; conditions: reduction in viral growth in cell lines; ref Schreiber et al., 2022; cited from earlier work
[5] = adverse events in healthy human volunteers (phase 1); type: in vivo; conditions: n = 8
Description: Healthy men and women between 18 and 55 years of age (inclusive), who weighed at least 50 kg with a body mass index (BMI) between 18.0 and 31.0 kg/m^2 (inclusive) were enrolled in this study. Exclusion criteria were clinically significant illnesses, positive urine test for selected drugs of abuse, positive alcohol breath test at screening and upon check-in at the clinical site, positive hepatitis panel (including hepatitis B surface antigen [HBsAg] and anti-hepatitis C virus [HCV] antibodies), and positive screens for human immunodeficiency virus (HIV) antibody. This Phase 1 study was a randomized, double-blind, placebo-controlled study (clinicaltrials.gov: NCT04385420) consisting of two parts. Part 1 was a SAD study with 40 healthy volunteers who were randomized to active or placebo treatment in a 4:1 ratio (4 cohorts with n (Zapnometinib) = 8; n (placebo) = 2 in each cohort). Subjects receiving active treatment were treated with either 100 mg, 300 mg, 600 mg, or 900 mg zapnometinib. Part 2 was a MAD study with 30 healthy volunteers in three cohorts with the same randomization as in the SAD part (3 cohorts with n (Zapnometinib) = 8; n (placebo) = 2 in each cohort). Each subject in the MAD cohorts received doses of zapnometinib of either 100 mg, 300 mg, or 600 mg once daily for seven days, or placebo. The safety assessment in this study included monitoring of adverse events (AEs), clinical laboratory tests, electrocardiograms (ECG), vital signs, and physical examination. The study protocol and its amendments were reviewed by the Commissie voor Medische Ethiek ZNA, Antwerp, Belgium. This study was conducted in accordance with the ethical principles that have their origin in the Declaration of Helsinki and the International Council for Harmonization of Technical Requirements for Pharmaceuticals for Human Use (ICH) Note for Guidance on Good Clinical Practice (GCP) (CPMP/ICH/135/95) and with applicable local requirements.

`O=C(O)c1ccc(F)c(F)c1Nc1ccc(I)cc1Cl` [zapnometinib, 2-(2-Chloro-4-Iodophenylamino)-N-3,4-Difluoro benzoic acid] showed a half-life [1] of 8 h, an AUC ([1]; po, 25 mg/kg) of 1390 µg·h/mL and a Cmax ([1]; po, 25 mg/kg) of 69 ± 24 µg/mL. The Tmax ([1]; po, 25 mg/kg, Tmax,1, mice, 25 mg/kg p.o., after first treatment) was 2 h, the Tmax ([1]; po, 25 mg/kg, Tmax,2, mice, 25 mg/kg p.o. twice, second dose at 8 h) was 10 h and the CC50 [2] was 322 µM. For the same molecule, the “concentration to inhibit 50% of PBMC MEK activity” value ([3]; across all species) was “approximately 10 μg/ml”, the “MEK inhibition in PBMCs, maximum observed” value ([3]; regardless of species) was “up to 80%” and the “MEK inhibition maintained 24 h after dosing” value ([3]; regardless of species, almost all zapnometinib eliminated from plasma) was “up to 50%”. For the same molecule, the anti-SARS-CoV-2 activity [4] was “potent anti-SARS-CoV-2 activity”, the Abdominal pain ([5]; 100 mg) was 0 n (%) and the Back pain ([5]; 100 mg) was 0 n (%). The Diarrhea ([5]; 100 mg) was 0 n (%), the Dizziness ([5]; 100 mg) was 0 n (%) and the Erythema ([5]; 100 mg) was 0 n (%). For the same molecule, the “Gastrointestinal Disorders” value ([5]; 100 mg) was 0 n (%), the Headache ([5]; 100 mg) was 0 n (%) and the Hepatic enzyme increase ([5]; 100 mg) was 0 n (%). The “Infections and Infestations” value ([5]; 100 mg) was 0 n (%), the Investigations ([5]; 100 mg) was 0 n (%) and the Nasopharyngitis ([5]; 100 mg) was 0 n (%). For the same molecule, the Neck pain ([5]; 100 mg) was 0 n (%), the “Nervous System Disorders” value ([5]; 100 mg) was 0 n (%) and the “Respiratory, thoracic and Mediastinal Disorders” value ([5]; 100 mg) was 0 n (%). For the same molecule, the Rhinorrhea ([5]; 100 mg) was 0 n (%), the “Skin and Subcutaneous Disorders” value ([5]; 100 mg) was 0 n (%) and the Throat irritation ([5]; 100 mg) was 0 n (%). The Abdominal pain ([5]; 300 mg) was 0 n (%), the Back pain ([5]; 300 mg) was 1 (12.5) n (%) and the Diarrhea ([5]; 300 mg) was 0 n (%). For the same molecule, the Dizziness ([5]; 300 mg) was 0 n (%), the Erythema ([5]; 300 mg) was 1 (12.5) n (%) and the “Gastrointestinal Disorders” value ([5]; 300 mg) was 0 n (%). For the same molecule, the Headache ([5]; 300 mg) was 3 (37.5) n (%), the Hepatic enzyme increase ([5]; 300 mg) was 1 (12.5) n (%) and the “Infections and Infestations” value ([5]; 300 mg) was 1 (12.5) n (%). For the same molecule, the Investigations ([5]; 300 mg) was 1 (12.5) n (%), the Nasopharyngitis ([5]; 300 mg) was 1 (12.5) n (%) and the Neck pain ([5]; 300 mg) was 1 (12.5) n (%). For the same molecule, the “Nervous System Disorders” value ([5]; 300 mg) was 3 (37.5) n (%), the “Respiratory, thoracic and Mediastinal Disorders” value ([5]; 300 mg) was 1 (12.5) n (%) and the Rhinorrhea ([5]; 300 mg) was 1 (12.5) n (%). The “Skin and Subcutaneous Disorders” value ([5]; 300 mg) was 1 (12.5) n (%), the Throat irritation ([5]; 300 mg) was 0 n (%) and the Abdominal pain ([5]; 600 mg) was 0 n (%). The Back pain ([5]; 600 mg) was 0 n (%), the Diarrhea ([5]; 600 mg) was 0 n (%) and the Dizziness ([5]; 600 mg) was 0 n (%). The Erythema ([5]; 600 mg) was 0 n (%), the “Gastrointestinal Disorders” value ([5]; 600 mg) was 0 n (%) and the Headache ([5]; 600 mg) was 1 (12.5) n (%). The Hepatic enzyme increase ([5]; 600 mg) was 0 n (%), the “Infections and Infestations” value ([5]; 600 mg) was 0 n (%) and the Investigations ([5]; 600 mg) was 0 n (%). For the same molecule, the Nasopharyngitis ([5]; 600 mg) was 0 n (%), the Neck pain ([5]; 600 mg) was 0 n (%) and the “Nervous System Disorders” value ([5]; 600 mg) was 1 (12.5) n (%). The “Respiratory, thoracic and Mediastinal Disorders” value ([5]; 600 mg) was 0 n (%), the Rhinorrhea ([5]; 600 mg) was 0 n (%) and the “Skin and Subcutaneous Disorders” value ([5]; 600 mg) was 0 n (%). For the same molecule, the Throat irritation ([5]; 600 mg) was 0 n (%), the Abdominal pain ([5]; 900 mg) was 1 (12.5) n (%) and the Back pain ([5]; 900 mg) was 0 n (%). The Diarrhea ([5]; 900 mg) was 1 (12.5) n (%), the Dizziness ([5]; 900 mg) was 0 n (%) and the Erythema ([5]; 900 mg) was 1 (12.5) n (%). The “Gastrointestinal Disorders” value ([5]; 900 mg) was 2 (25.0) n (%), the Headache ([5]; 900 mg) was 1 (12.5) n (%) and the Hepatic enzyme increase ([5]; 900 mg) was 0 n (%). For the same molecule, the “Infections and Infestations” value ([5]; 900 mg) was 0 n (%), the Investigations ([5]; 900 mg) was 0 n (%) and the Nasopharyngitis ([5]; 900 mg) was 0 n (%). For the same molecule, the Neck pain ([5]; 900 mg) was 0 n (%), the “Nervous System Disorders” value ([5]; 900 mg) was 1 (12.5) n (%) and the “Respiratory, thoracic and Mediastinal Disorders” value ([5]; 900 mg) was 1 (12.5) n (%). The Rhinorrhea ([5]; 900 mg) was 0 n (%), the “Skin and Subcutaneous Disorders” value ([5]; 900 mg) was 1 (12.5) n (%) and the Throat irritation ([5]; 900 mg) was 1 (12.5) n (%).
